The text below walks through data of ChEMBL document CHEMBL1140186, “Hunter-killer peptide (HKP) for targeted therapy” (2008).

Calls of active or inactive are those of the source. The calls are words filed in the database; no cut-off is given here. Bridge positions count the residues as written; N and C are the ends. Square brackets hold non-standard residues; d marks the D form. Peptide text beside a SMILES is read from it.

One experiment deals with MDA-MB-435. The experiment is described as follows: Antitumor activity against human MDA-MB-435 cells xenografted mouse assessed as survival after 120 days. Format: functional.
The species entered for experiment [1] is Mus musculus. The experiment in a line: Increase in survival of transgenic mouse prostate adenocarcinoma model after 6 to 8 weeks. Format: functional, organism-based. The conditions noted are these: Prostate gland.
Experiment [2] deals with Mus musculus. The experiment is described as follows: Induction of weight loss in sc dosed high fat diet fed mouse after 4 weeks. The experiment is classed as functional.
Experiment [3] has as its system Mus musculus. The experiment is described as follows: Reduction in epididymal fat pad size in sc dosed high fat diet fed mouse after 4 weeks relative to control. The experiment is classed as functional. Also noted: scale not given: the % may be the effect or the level left.

With `CC(C)C[C@@H](NC(=O)[C@@H](CCCCN)NC(=O)CNC(=O)CNC(=O)[C@@H]1CSSC[C@H](N)C(=O)N[C@@H](CC(N)=O)C(=O)NCC(=O)N[C@@H](CCCNC(=N)N)C(=O)N1)C(=O)N[C@H](C)C(=O)N[C@H](CCCCN)C(=O)N[C@H](CC(C)C)C(=O)N[C@H](C)C(=O)N[C@H](CCCCN)C(=O)N[C@H](CCCCN)C(=O)N[C@H](CC(C)C)C(=O)N[C@H](C)C(=O)N[C@H](CCCCN)C(=O)N[C@H](CC(C)C)C(=O)N[C@H](C)C(=O)N[C@H](CCCCN)C(=O)O` (H-CNGRCGG[dK][dL][dA][dK][dL][dA][dK][dK][dL][dA][dK][dL][dA][dK]-OH; disulfide 1-5), the Survival in the experiment with MDA-MB-435 stood at 60%.
With `CC[C@H](C)[C@H](NC(=O)[C@H](CO)NC(=O)[C@H](CCSC)NC(=O)[C@@H](N)CO)C(=O)N[C@@H](C)C(=O)N[C@@H](CCCNC(=N)N)C(=O)N[C@@H](CC(C)C)C(=O)NCC(=O)NCC(=O)N[C@H](CCCCN)C(=O)N[C@H](CC(C)C)C(=O)N[C@H](C)C(=O)N[C@H](CCCCN)C(=O)N[C@H](CC(C)C)C(=O)N[C@H](C)C(=O)N[C@H](CCCCN)C(=O)N[C@H](CCCCN)C(=O)N[C@H](CC(C)C)C(=O)N[C@H](C)C(=O)N[C@H](CCCCN)C(=O)N[C@H](CC(C)C)C(=O)N[C@H](C)C(=O)N[C@H](CCCCN)C(=O)O` (H-SMSIARLGG[dK][dL][dA][dK][dL][dA][dK][dK][dL][dA][dK][dL][dA][dK]-OH), the result in the experiment listed under Mus musculus [1] was Active.
Turning to `CC(C)C[C@@H](NC(=O)[C@@H](CCCCN)NC(=O)CNC(=O)CNC(=O)[C@@H]1CSSC[C@H](N)C(=O)N[C@@H](CCCCN)C(=O)NCC(=O)NCC(=O)N[C@@H](CCCNC(=N)N)C(=O)N[C@@H](C)C(=O)N[C@@H](CCCCN)C(=O)N[C@@H](CC(=O)O)C(=O)N1)C(=O)N[C@H](C)C(=O)N[C@H](CCCCN)C(=O)N[C@H](CC(C)C)C(=O)N[C@H](C)C(=O)N[C@H](CCCCN)C(=O)N[C@H](CCCCN)C(=O)N[C@H](CC(C)C)C(=O)N[C@H](C)C(=O)N[C@H](CCCCN)C(=O)N[C@H](CC(C)C)C(=O)N[C@H](C)C(=O)N[C@H](CCCCN)C(=O)O` (H-CKGGRAKDCGG[dK][dL][dA][dK][dL][dA][dK][dK][dL][dA][dK][dL][dA][dK]-OH; disulfide 1-9), the results for the Activity in the experiment with Mus musculus [2] and in the experiment with Mus musculus [3] were 30% and over 70%, respectively.
